Laboratory results taken from ChEMBL document CHEMBL1159313, “Structure and stereochemistry of new cytotoxic clerodane diterpenoids from the bark of Casearia lucida from the Madagascar rainforest” (J Nat Prod, 2002).
≈ marks a conversion by molar mass, not a printed value.

Columns and labels:
Type in all cases: functional, cell-based
[1] = system: A2780; assay: Cytotoxicity against human A2780 cells after 48 hrs by microplate assay; conditions: A2780, 48 h
[2] = Cytotoxicity against human drug-sensitive […] cells after 48 hrs by microplate assay
[3] = Cytotoxicity against human drug-resistant A2780DDP cells after 48 hrs by microplate assay
[4] = system: SK-BR-3; assay: Cytotoxicity against human SKBR3 cells after 48 hrs by microplate assay; conditions: SK-BR-3, 48 h
[5] = system: PC-3; assay: Cytotoxicity against human PC3 cells after 48 hrs by microplate assay; conditions: PC-3, 48 h
[6] = system: HCT-116; assay: Cytotoxicity against human HCT116 cells after 48 hrs by microplate assay; conditions: HCT-116, 48 h
[7] = system: LX-1; assay: Cytotoxicity against human LX1 cells after 48 hrs by microplate assay; conditions: LX-1, 48 h
[8] = system: K562; assay: Cytotoxicity against human K562 cells after 48 hrs by microplate assay; conditions: K562, 48 h
[9] = system: ABAE; assay: Cytotoxicity against ABAE cells after 48 hrs by microplate assay; conditions: Bos taurus
[10] = system: HT-29; assay: Cytotoxicity against human HT-29 cells after 48 hrs by microplate assay; conditions: HT-29, 48 h

Row | SMILES | IC50 [1] [µg/mL] | IC50 [2] [µg/mL] | IC50 [3] [µg/mL] | IC50 [4] [µg/mL] | IC50 [5] [µg/mL] | IC50 [6] [µg/mL] | IC50 [7] [µg/mL] | IC50 [8] [µg/mL] | IC50 [9] [µg/mL] | IC50 [10] [µg/mL]
1 | C=CC(=C)CC[C@]1(C)[C@H]2C[C@@H](OC(=O)C(C)CC)C=C3[C@H](OC(C)=O)O[C@H](OC(C)=O)[C@@]32[C@H](OC)C[C@@H]1C (relative stereo) [CASEARLUCIN E] | 2.9 (≈ 5.44 µM) | 3 (≈ 5.63 µM) | 4.1 (≈ 7.7 µM) | 3.9 (≈ 7.32 µM) | 4.3 (≈ 8.07 µM) | 1.8 (≈ 3.38 µM) | 1.8 (≈ 3.38 µM) | 1.7 (≈ 3.19 µM) | 0.9 (≈ 1.69 µM) | 2.8 (≈ 5.26 µM)
2 | C=C/C(C)=C/C[C@]1(C)[C@H]2C[C@H](OC(=O)C(C)CC)C=C3[C@H](OC(C)=O)O[C@H](OC(C)=O)[C@@]32[C@H](O)C[C@@H]1C (relative stereo) [CASEARLUCIN A] | 3 (≈ 5.78 µM) | 1 (≈ 1.93 µM) | 2.8 (≈ 5.4 µM) | 1.2 (≈ 2.31 µM) | 2.5 (≈ 4.82 µM) | 1.3 (≈ 2.51 µM) | 1 (≈ 1.93 µM) | 1.1 (≈ 2.12 µM) | 0.8 (≈ 1.54 µM) | 0.8 (≈ 1.54 µM)
3 | C=CC(=C)CC[C@]1(C)[C@H]2C[C@H](OC(=O)C(C)CC)C=C3[C@H](OC(C)=O)O[C@H](OC(C)=O)[C@@]32[C@H](O)C[C@@H]1C (relative stereo) | 2.9 (≈ 5.59 µM) | 1.2 (≈ 2.31 µM) | 2.1 (≈ 4.05 µM) | 1.4 (≈ 2.7 µM) | 2.8 (≈ 5.4 µM) | 1.6 (≈ 3.08 µM) | 1.1 (≈ 2.12 µM) | 1.4 (≈ 2.7 µM) | 0.8 (≈ 1.54 µM) | 1 (≈ 1.93 µM)
4 | C=CC(=C)CC[C@]1(C)[C@H]2C[C@H](OC(=O)C(C)CC)C=C3[C@H](OC(C)=O)O[C@H](OC(C)=O)[C@@]32[C@H](OC(C)=O)C[C@@H]1C (relative stereo) [CASEARLUCIN D] | 2.9 (≈ 5.17 µM) | 9.4 (≈ 16.8 µM) | 4.6 (≈ 8.2 µM) | 10 (≈ 17.8 µM) | 13 (≈ 23.2 µM) | 4.7 (≈ 8.38 µM) | 3.9 (≈ 6.96 µM) | 3.9 (≈ 6.96 µM) | 4.1 (≈ 7.31 µM) | 6.2 (≈ 11.1 µM)
5 | C=C/C(C)=C/C[C@]1(C)[C@H]2C[C@H](OC(=O)C(C)CC)C=C3[C@H](OC(C)=O)O[C@H](OC(C)=O)[C@@]32[C@H](OC(C)=O)C[C@@H]1C (relative stereo) [CASEARLUCIN C] | 2.8 (≈ 4.99 µM) | 7.7 (≈ 13.7 µM) | 9.6 (≈ 17.1 µM) | 14 (≈ 25 µM) | 15 (≈ 26.8 µM) | 4.5 (≈ 8.03 µM) | 5 (≈ 8.92 µM) | 3.8 (≈ 6.78 µM) | 3.6 (≈ 6.42 µM) | 12 (≈ 21.4 µM)
6 | C=CC(=C)CC[C@]1(C)[C@H]2C[C@H](OC(=O)C(C)CC)C=C3[C@H](OC(C)=O)O[C@H](OC(C)=O)[C@@]32[C@H](OC)C[C@@H]1C (relative stereo) | 2.9 (≈ 5.44 µM) | 1.4 (≈ 2.63 µM) | 2.9 (≈ 5.44 µM) | 3.5 (≈ 6.57 µM) | 3 (≈ 5.63 µM) | 1 (≈ 1.88 µM) | 1.2 (≈ 2.25 µM) | 1.4 (≈ 2.63 µM) | 0.8 (≈ 1.5 µM) | 1.3 (≈ 2.44 µM)
